Data on seven compounds can be found in patent US4689346A, “Therapeutic 1-(acylamino)-naphthalene-4-sulphonic acid derivatives” (Laboratorio Fides, S.A., priority 1982, dated 1987).

In one data set the test system is capillary resistance. The data set is described as follows: Capillary resistance, modified technique based on that of Lavollay (time to first central petechiae under vacuum, scorbutic diet). Conditions: 0.175 g/kg, oral, guinea-pigs, four weeks. The data set is classed as in vivo. The protocol:
The effect on the capillary resistance is determined by means of a modified technique based on that of Lavollay. An increasingly powerful vacuum is applied to the skin, and the time that elapses before the first central petechiae appear is taken as a measure of the capillary resistance. Three batches of guinea-pigs are used for each product tested, one batch being a normal batch and the two other batches being subjected to a scorbutic diet, one of the latter batches having received the product under investigation from the start of the trial. An initial basal reading and other weekly readings are taken for four weeks. Ethamsylate is used as a standard.

In the next data set the test system is fibrin plates. Description: Antifibrinolytic activity in vitro by means of fibrin plates, modified and standardized method of Astrup and Mullertz. The data set is classed as biochemical. The conditions noted are these: AMCHA as standard (= 1). The protocol:
The antifibrinolytic activity is evaluated "in vitro" by means of fibrin plates according to the modified and standardized method of Astrup and Mullertz.
The antifibrinolytic activity of the test solution is calculated by interpolating the lysis response in a dose/response curve obtained with reference solutions (graduated dilutions of a standard enzyme). AMCHA was used as a standard antifibrinolytic compound.

In data set [1] the test system is mean bleeding (clotting) time measured in a rabbit ear. Description: Hemostatic activity: mean bleeding (clotting) time in a rabbit ear, technique of Roskam and Pauwen. In kind it is in vivo. Conditions: i.v. The protocol:
The hemostatic activity is determined by means of a quantitative study of the mean bleeding (clotting) time measured in a rabbit ear by the technique described by Roskam and Pauwen.
Ethamsylate was used as a standard, and the results obtained were as follows: […]

Data set [2] concerns vascular permeability produced by histamine. The data set is described as follows: Capillary permeability, Lefebre's method (vascular permeability produced by histamine in rats). In kind it is in vivo. The conditions noted are these: 0.100 g/kg, subcutaneous. How it is done: The effect on the capillary permeability is determined by means of Lefebre's method, which is based on measuring, at the time of appearance of a coloration, the vascular permeability produced by histamine in rats that have been injected with the product under investigation. Ethamsylate is used as a standard, and the results obtained are as follows: […]

The nature of data set [3]: Acute toxicity, LD50 in mice. In kind it is in vivo. Conditions: mouse, in vivo. The protocol:
(§1) The LD50 in mice is determined for the endovenous, intraperitoneal and oral routes.

The subject of the next data set is mice. The data set is described as follows: Acute toxicity, LD50 in mice. The data set is classed as in vivo. The conditions noted are these: for Acute toxicity, LD50, I.v. route: i.v. (endovenous). How it is done: as §1

Like-named read-outs stand apart in the source and are kept apart here. Some results are limits rather than exact numbers.

For the compound `NC[C@H]1CC[C@H](C(=O)O)CC1` [AMCHA, trans-4-(aminomethyl)-cyclohexanecarboxylic acid, reference compound], the “Capillary resistance, % Effect” value with capillary resistance was 20.08%. The “Antifibrinolytic activity, Weight capacity” value with fibrin plates amounted to 1. Moreover, the results for the “Hemostatic activity, % Effect” value in data set [1] (10 mg/kg) and in data set [1] (100 mg/kg) were 22.5% and 26.5%, respectively. In addition, the “Capillary permeability, % Effect” value in data set [2] is -2%.
For the compound `O=S(=O)(O)c1cc(O)ccc1O` [Ethamsylate, reference compound], the “Capillary resistance, % Effect” value with capillary resistance turned out to be 14.18%. Besides, in data set [3] (iv, i.v. (endovenous), read-out: Acute toxicity, LD50, I.v. route), the LD50 was 800 mg/kg. In the data set on fibrin plates, the “Antifibrinolytic activity, Relative capacity” value is recorded as 0.47 and the “Antifibrinolytic activity, Weight capacity” value was 0.28. Besides, the “Hemostatic activity, % Effect” value in data set [1] (10 mg/kg) is 22.11%. In data set [2], the “Capillary permeability, % Effect” value came to 26.33%.
Turning to `CC(=O)Oc1cc(S(=O)(=O)O)c2ccccc2c1N(C(C)=O)C(C)=O` [Example 1, potassium N,N,O-triacetyl-1-amino-2-naphthol-4-sulphonate], the “Capillary resistance, % Effect” value in the data set on capillary resistance worked out at 23.6%. Besides, the LD50 in data set [3] (ip, read-out: Acute toxicity, LD50, I.p. route) was 3560 mg/kg; in data set [3] (po, read-out: Acute toxicity, LD50, Oral route) it was above 7000 mg/kg. Besides, in the data set on mice, the “Acute toxicity, LD50, I.v. route” value came out at 653 mg/kg. In the data set on fibrin plates, the “Antifibrinolytic activity, Relative capacity” value turned out to be 2.06. For the same compound, the “Antifibrinolytic activity, Weight capacity” value in the data set on fibrin plates is 0.91. In addition, the results for the “Hemostatic activity, % Effect” value in data set [1] (10 mg/kg) and in data set [1] (100 mg/kg) were 18.2% and 23%, respectively. Also, the “Capillary permeability, % Effect” value in data set [2] came out at 19%.
On to `CC(=O)Oc1cc(S(=O)(=O)O)c2ccccc2c1N(C(C)=O)C(C)=O` [Example 2, morpholine N,N,O-triacetyl-1-amino-2-naphthol-4-sulphonate], for which the “Capillary resistance, % Effect” value with capillary resistance came out at 23.95%. In the data set with mice, the “Acute toxicity, LD50, I.p. route” value came to 4040 mg/kg; the “Acute toxicity, LD50, I.v. route” value came to 1530 mg/kg; the “Acute toxicity, LD50, Oral route” value was above 7000 mg/kg. In the data set with fibrin plates, the “Antifibrinolytic activity, Relative capacity” value was found to be 1.67 and the “Antifibrinolytic activity, Weight capacity” value is recorded as 0.59. Also, the “Hemostatic activity, % Effect” value in data set [1] (10 mg/kg) turned out to be 24.7%. The “Hemostatic activity, % Effect” value in data set [1] (100 mg/kg) was 13%. In addition, the “Capillary permeability, % Effect” value in data set [2] is 29%.
`CC(=O)Oc1cc(S(=O)(=O)O)c2ccccc2c1N(C(C)=O)C(C)=O` [Example 4, sodium N,N,O-triacetyl-1-amino-2-naphthol-4-sulphonate]: the “Capillary resistance, % Effect” value in the data set on capillary resistance worked out at 17.9%. Further, in the data set with mice, the “Acute toxicity, LD50, I.p. route” value turned out to be 5260 mg/kg; the “Acute toxicity, LD50, I.v. route” value was 3510 mg/kg; the “Acute toxicity, LD50, Oral route” value was above 7000 mg/kg. Moreover, in the data set with fibrin plates, the “Antifibrinolytic activity, Relative capacity” value was 2.61 and the “Antifibrinolytic activity, Weight capacity” value came to 1.21. Besides, the “Hemostatic activity, % Effect” value in data set [1] (10 mg/kg) is listed as 29.7%. Further, the “Hemostatic activity, % Effect” value in data set [1] (100 mg/kg) worked out at 29.8%.
Take `CC(=O)Nc1c(OC(C)=O)cc(S(=O)(=O)O)c2ccccc12` [Example 5, sodium N,O-diacetyl-1-amino-2-naphthol-4-sulphonate]: in the data set with capillary resistance, the “Capillary resistance, % Effect” value is on record as 26%. Besides, in the data set on fibrin plates, the “Antifibrinolytic activity, Relative capacity” value was determined as 1.19 and the “Antifibrinolytic activity, Weight capacity” value is recorded as 0.55. Further, in data set [1] (25 mg/kg), the “Hemostatic activity, % Effect” value worked out at 10.6%.
For the compound `CC(=O)Oc1cc(S(=O)(=O)O)c2ccccc2c1N(C(C)=O)C(C)=O` [Example 11, AMCHA N,N,O-triacetyl-1-amino-2-naphthol-4-sulphonate], the “Capillary resistance, % Effect” value in the data set on capillary resistance was 22.6%. Further, in the data set with fibrin plates, the “Antifibrinolytic activity, Relative capacity” value amounted to 3.36 and the “Antifibrinolytic activity, Weight capacity” value amounted to 1.19. In addition, in data set [1] (10 mg/kg), the “Hemostatic activity, % Effect” value stood at 20%. For the same compound, the “Hemostatic activity, % Effect” value in data set [1] (100 mg/kg) came out at 32%. The “Capillary permeability, % Effect” value in data set [2] stood at 14%.

The term LD50 denotes the dose at which mortality reaches 50%.
